Experimental data reported in patent US7345026B2, “Hybrid or chimeric polynucleotides, proteins, and compositions comprising hepatitis B virus sequences” (Institut Pasteur, priority 1999, dated 2008).
Where “and” joins values, the source holds several entries; their conditions need not be identical. Equal values may be shown once. Entries after “also recorded” stand apart in the source; their conditions may differ. Read-outs that look alike come from different tables or passages of the source.

Legend:
[1] = tested on: HHD-transfected RMA-S target cells loaded with relevant peptides; set-up: species or system HHD mice; details: mouse, in vivo
[2] = tested on: HHD-transfected RMA-S cells loaded with relevant peptides; set-up: species or system HHD mice; details: in vivo
[3] = tested on: HHD-transfected RMA-S cells loaded with relevant peptides; set-up: species or system A2A2Kb mice; details: in vivo, sc
[4] = tested on: peptide-loaded HHD-transfected RMA-S cells; set-up: species or system HHD mice; details: mouse, in vivo
[5] = tested on: HHD-transfected RMAS cells loaded with relevant peptides; set-up: species or system HHD mice; details: mouse, in vivo, iv
[6] = tested on: HHD-transfected RMAS cells loaded with relevant peptides; set-up: species or system HHD mice; details: mouse, in vivo
[7] = tested on: HHD-transfected RMAS cells loaded with relevant peptides; set-up: species or system HHD mice; details: mouse, in vivo; remark: listed apart in the source
[8] = target: HLA-A2.1 molecules (Homo sapiens, UniProt P04439, D140Y/D185E/D98H/E176V/E277Q/G131W/G231S/I119V/I121R/I166T/I218V/L300P/L318F/N151K/N90K/P208A/P217A/Q86G/Q94H/R138H/R169H/T345S)

Sequence	CTL response when co-injected with helper peptide (in words) [1]	lysis in % [1]	CTL inducer hierarchy (in words) ([2]; mouse)	CTL response against the epitope after polyepitope immunization (in words) [4]	further results
RMPEAAPPV (listed as Homo sapiens) [p53.65]	stronger responses in a larger proportion of mice	(29, 31, 40, 41, 55) %	intermediate		
VLYRYGSFSV (listed as Homo sapiens) [gp100.476]		(20, 22, 59, 63, 75, 79) %	weak	did not elicit CTL responses	lysis in % (maximal lysis observed for each responder mouse) [3]: (29) %; lysis in % (maximal lysis observed for each responder mouse) ([2]; sc): (54, 70) %
VLPDVFIRC (listed as Homo sapiens) [NA17-A.nt38]	stronger responses in a larger proportion of mice	(36, 39, 61,64, 71) %	intermediate	Strong responses	lysis in % (highest specific lysis) [5]: 0 (6) % and 3 (5) % and 5 (24) % and 3 (9) % and 6 (7) % and 0 (2) %; lysis in % following a second in vitro restimulation (numbers in parentheses) [5]: 0 (6) % and 3 (5) % and 5 (24) % and 3 (9) % and 6 (7) % and 0 (2) %
STPPPGTRV (listed as Homo sapiens) [p53.149]		(20, 51, 71) %	inefficient		
IISAVVGIL (listed as Homo sapiens) [Her2/neu.654]			weak		lysis in % (maximal lysis observed for each responder mouse) ([2]; sc): (42) %
KTWGQYWQV [gp100.154]	stronger responses in a larger proportion of mice	(43, 59, 60, 64, 77. 77, 80, 82, 85) %	strong	Strong responses	
LLGRNSFEV (listed as Homo sapiens) [p53.264]		(37, 64) %	inefficient; also recorded: poor CTL-induction capacity		
YLEPGPVTA [gp100.280]		(12, 16) %	weak	No specific lysis; also recorded: did not elicit CTL responses	CTL responses (in words) [6]: Some responses of weak to strong magnitude; CTL responses (in words) [7]: Some responses of weak to strong magnitude; lysis in % (highest specific lysis) [5]: 0 (1) % and 0 (0) %; lysis in % following a second in vitro restimulation (numbers in parentheses) [5]: 0 (1) % and 0 (0) %
YLSGANLNL (listed as Homo sapiens) [CEA.571]	less immunogenic	(20, 32, 46) %	strong		lysis in % (highest specific lysis) [5]: 4 (1) % and 1 (5) % and 1 (2) % and 0 (0) % and 2 (0) % and 4 (22) %; lysis in % following a second in vitro restimulation (numbers in parentheses) [5]: 4 (1) % and 1 (5) % and 1 (2) % and 0 (0) % and 2 (0) % and 4 (22) %
ITDQVPFSV [gp100.209]		(31, 36, 56) %	weak		lysis in % (maximal lysis observed for each responder mouse) ([2]; sc): (23) %
TLGIVCPI (listed as Homo sapiens) [HPV E7.86]		(34, 48) %	inefficient		lysis in % (maximal lysis observed for each responder mouse) [3]: (10, 13) %
YMDGTMSQV [Tyrosinase.368-D]		(13, 15) %	weak	elicited CTL responses depending on mice	CTL responses (in words) [7]: Some responses of weak to strong magnitude; lysis in % (maximal lysis observed for each responder mouse) ([2]; sc): (10) %
YMNGTMSOV (YMNGTMSV; listed as Homo sapiens) [Tyrosinase.368-N]		(21, 36, 70, 72, 78) %	intermediate		R/T (responder versus tested mice) ([3]; mouse): 0/6; R/T (responder versus tested mice) ([1]; sc): 5/12; RA (relative affinity) [8]: 2.2; R/T (responder versus tested mice) ([2]; mouse, sc): 4/15
MLLAVLYCL (listed as Homo sapiens) [Tyrosinase.1]	good CTL responses in a large proportion of mice	(27, 33, 40, 42, 51) %	inefficient	No specific lysis; also recorded: did not elicit CTL responses	
ILTVILGVL (listed as Homo sapiens) [Melan-A/MART-1.32]			inefficient	No specific lysis; also recorded: did not elicit CTL responses	
LLDGTATLRL [gp100.457]	good CTL responses in a large proportion of mice; also recorded: strong CTL-inducers when associated with a helper peptide	(14, 35, 43, 77, 79) %	inefficient	Significant responses	
